According to US10669289B2, “Boronic acid derivatives” (MERCK PATENT GMBH, priority 2014, dated 2020):

Legend:
[1] = target: human immuno proteasome (LMP7) (Homo sapiens (Human), UniProt P28062); assay: Determination of LMP7 activity (fluorescence intensity assay, Suc-LLVY-AMC); type: biochemical
In short: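 Fluorogenic Suc-LLVY-AMC cleavage (40 μM substrate, 60 min, 37° C., ex 350/em 450 nm) measured after 0.25 nM human immunoproteasome was exposed to compound at 30 μM–15 pM. Preincubation was 20 min by default or 120 min (long) at 25° C., in Tris pH 7.4 with 0.03% SDS, 1 mM EDTA and 1% DMSO.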

[2] = target: human constitutive proteasome (Beta5) (Homo sapiens (Human), UniProt P28074); assay: Determination of Beta5 activity (fluorescence intensity assay, Suc-LLVY-AMC); type: biochemical
In short: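 Purified human constitutive proteasome (1.25 nM) preincubated with compounds (30 μM–15 pM) for 20 min (default) or 120 min at 25 °C in 50 mM Tris pH 7.4, 0.03% SDS, 1 mM EDTA, 1% DMSO. Suc-LLVY-AMC substrate at 40 μM, 60 min at 37 °C. Fluorescence read at ex 350/em 450 nm.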

[3] = LMP7 versus Beta5, long incubation (120 min)

Selectivity LMP7 vs Beta5 [1, 3] | IC50 ([1]; long incubation (120 min)) [nM] | IC50 ([2]; long incubation (120 min)) [µM] | Selectivity LMP7 vs Beta5 ([1]; LMP7 versus Beta5, incubation for 20 minutes) | IC50 ([1]; incubation for 20 minutes) [nM] | IC50 ([2]; incubation for 20 minutes) [µM] | Structure (SMILES)
+++++ (Selectivity ≥ 150) | 50 to 500 | > 5 | – | – | – | C=CC(=O)N(CC)CC(=O)N[C@@H](Cc1ccc(C(F)(F)F)cc1C)B(O)O [Compound No. 64, [(1R)-1-[[2-[ethyl(prop-2-enoyl)amino]acetyl]amino]-2-[2-methyl-4-(trifluoromethyl)phenyl]ethyl]boronic Acid]
+++++ (Selectivity ≥ 150) | < 50 | > 5 | – | – | – | C=CC(=O)N(CC)CC(=O)N[C@@H](Cc1ccc(Cl)c(Cl)c1)B(O)O [Compound No. 65, [(1R)-2-(3,4-dichlorophenyl)-1-[[2-[ethyl(prop-2-enoyl)amino]acetyl]amino]ethyl]boronic Acid]
+++++ (Selectivity ≥ 150) | < 50 | > 5 | – | – | – | C=CC(=O)N(C)CC(=O)N[C@@H](Cc1ccc(Cl)c(Cl)c1)B(O)O [Compound No. 66, [(1R)-2-(3,4-dichlorophenyl)-1-[[2-[methyl(prop-2-enoyl)amino]acetyl]amino]ethyl]boronic Acid]
+++++ (Selectivity ≥ 150) | < 50 | > 5 | – | – | – | C=CC(=O)N(C)CC(=O)N[C@@H](Cc1ccc(C(F)(F)F)cc1C)B(O)O [Compound No. 67, [(1R)-1-[[2-[methyl(prop-2-enoyl)amino]acetyl]amino]-2-[2-methyl-4-(trifluoromethyl)phenyl]ethyl]boronic Acid]
+++++ (Selectivity ≥ 150) | 50 to 500 | > 5 | – | – | – | C=CC(=O)N(C)[C@@H](C)C(=O)N[C@@H](Cc1ccc(C)c(C)c1)B(O)O [Compound No. 68, [(1R)-2-(3,4-dimethylphenyl)-1-[[(2S)-2-[methyl(prop-2-enoyl)amino]propanoyl]amino]ethyl]boronic Acid]
+++++ (Selectivity ≥ 150) | – | 0.5 to 5 | – | – | – | C=CC(=O)N(CC(=O)N[C@@H](Cc1ccc(Cl)c(Cl)c1)B(O)O)C1CC1 [Compound No. 69, [(1R)-1-[[2-[cyclopropyl(prop-2-enoyl)amino]acetyl]amino]-2-(3,4-dichlorophenyl)ethyl]boronic Acid]
+++++ (Selectivity ≥ 150) | < 50 | > 5 | – | – | – | C=CC(=O)N(CC(=O)N[C@@H](Cc1ccc(Cl)cc1Cl)B(O)O)C1CC1 [Compound No. 70, [(1R)-1-[[2-[cyclopropyl(prop-2-enoyl)amino]acetyl]amino]-2-(2,4-dichlorophenyl)ethyl]boronic Acid]
+++++ (Selectivity ≥ 150) | < 50 | > 5 | – | – | – | C=CC(=O)N(CC(=O)N[C@@H](Cc1ccc(C)c(C)c1)B(O)O)C1CC1 [Compound No. 71, [(1R)-1-[[2-[cyclopropyl(prop-2-enoyl)amino]acetyl]amino]-2-(3,4-dimethylphenyl)ethyl]boronic Acid]
+++++ (Selectivity ≥ 150) | 50 to 500 | > 5 | – | – | – | C=CC(=O)N(CC)CC(=O)N[C@@H](Cc1ccc(C)c(C)c1C)B(O)O [Compound No. 72, [(1R)-1-[[2-[ethyl(prop-2-enoyl)amino]acetyl]amino]-2-(2,3,4-trimethylphenyl)ethyl]boronic Acid]
++ (50 ≤ Selectivity < 70) | 500 to 5000 | > 5 | – | – | – | C=CC(=O)N(C)CC(=O)N[C@H](Cc1ccsc1)B(O)O [Compound No. 73, [(1S)-1-[[2-[methyl(prop-2-enoyl)amino]acetyl]amino]-2-(3-thienyl)ethyl]boronic Acid]
+++++ (Selectivity ≥ 150) | < 50 | > 5 | – | – | – | C=CC(=O)N(C)CC(=O)N[C@@H](Cc1ccc(C)c(C)c1C)B(O)O [Compound No. 74, [(1R)-1-[[2-[methyl(prop-2-enoyl)amino]acetyl]amino]-2-(2,3,4-trimethylphenyl)ethyl]boronic Acid]
+++++ (Selectivity ≥ 150) | 50 to 500 | > 5 | – | – | – | C=CC(=O)N(C)CC(=O)N[C@@H](Cc1ccsc1)B(O)O [Compound No. 75, [(1R)-1-[[2-[methyl(prop-2-enoyl)amino]acetyl]amino]-2-(3-thienyl)ethyl]boronic Acid]
+ (Selectivity < 50) | 500 to 5000 | > 5 | – | – | – | C=CC(=O)N(CC)CC(=O)N[C@H](Cc1ccsc1)B(O)O [Compound No. 76, [(1S)-1-[[2-[ethyl(prop-2-enoyl)amino]acetyl]amino]-2-(3-thienyl)ethyl]boronic Acid]
+++++ (Selectivity ≥ 150) | < 50 | > 5 | – | – | – | C=CC(=O)N(CC)CC(=O)N[C@@H](Cc1ccsc1)B(O)O [Compound No. 77, [(1R)-1-[[2-[ethyl(prop-2-enoyl)amino]acetyl]amino]-2-(3-thienyl)ethyl]boronic Acid]
+++++ (Selectivity ≥ 150) | < 50 | > 5 | – | – | – | C=CC(=O)N(CC(=O)N[C@@H](Cc1ccsc1)B(O)O)c1ccccc1F [Compound No. 78, [(1R)-1-[[2-(2-fluoro-N-prop-2-enoyl-anilino)acetyl]amino]-2-(3-thienyl)ethyl]boronic Acid]
+++++ (Selectivity ≥ 150) | 50 to 500 | > 5 | – | – | – | C=CC(=O)N(CC)CC(=O)N[C@@H](Cc1cccc2ccccc12)B(O)O [Compound No. 79, [(1R)-1-[[2-[ethyl(prop-2-enoyl)amino]acetyl]amino]-2-(1-naphthyl)ethyl]boronic Acid]
+++++ (Selectivity ≥ 150) | 50 to 500 | > 5 | – | – | – | C=CC(=O)N(C)CC(=O)N[C@@H](Cc1cccc2ccccc12)B(O)O [Compound No. 80, [(1R)-1-[[2-[methyl(prop-2-enoyl)amino]acetyl]amino]-2-(1-naphthyl)ethyl]boronic Acid]
+++++ (Selectivity ≥ 150) | < 50 | > 5 | – | – | – | C=CC(=O)N(CC)CC(=O)N[C@@H](Cc1ccc2ccccc2c1)B(O)O [Compound No. 81, [(1R)-1-[[2-[ethyl(prop-2-enoyl)amino]acetyl]amino]-2-(2-naphthyl)ethyl]boronic Acid]
+++++ (Selectivity ≥ 150) | < 50 | 0.5 to 5 | – | – | – | C=CC(=O)N(C)CC(=O)N[C@@H](Cc1ccc2ccccc2c1)B(O)O [Compound No. 82, [(1R)-1-[[2-[methyl(prop-2-enoyl)amino]acetyl]amino]-2-(2-naphthyl)ethyl]boronic Acid]
+++++ (Selectivity ≥ 150) | 50 to 500 | > 5 | – | – | – | C=CC(=O)N(CC(=O)N[C@@H](Cc1ccc(C)c(C)c1)B(O)O)CC(F)F [Compound No. 83, [(1R)-1-[[2-[2,2-difluoroethyl(prop-2-enoyl)amino]acetyl]-amino]-2-(3,4-dimethylphenyl)ethyl]boronic Acid]
+++++ (Selectivity ≥ 150) | 50 to 500 | > 5 | – | – | – | C=CC(=O)N(CC(=O)N[C@@H](Cc1ccc(C)cc1C)B(O)O)CC(F)F [Compound No. 84, [(1R)-1-[[2-[2,2-difluoroethyl(prop-2-enoyl)amino]acetyl]-amino]-2-(2,4-dimethylphenyl)ethyl]boronic Acid]
+++++ (Selectivity ≥ 150) | < 50 | > 5 | – | – | – | C=CC(=O)N(C)CC(=O)N[C@@H](Cc1ccc(Cl)cc1Cl)B(O)O [Compound No. 85, [(1R)-2-(2,4-dichlorophenyl)-1-[[2-[methyl(prop-2-enoyl)amino]acetyl]amino]ethyl]boronic Acid]
+++++ (Selectivity ≥ 150) | < 50 | 0.05 to 0.5 | – | – | – | C=CC(=O)N(CC(=O)N[C@@H](Cc1coc2ccccc12)B(O)O)c1ccccc1F [Compound No. 86, [(1R)-2-(benzofuran-3-yl)-1-[[2-(2-fluoro-N-prop-2-enoyl-anilino)acetyl]amino]ethyl]boronic Acid]
– | – | – | +++++ (Selectivity ≥ 150) | < 50 | > 5 | C=CC(=O)N(CC(=O)N[C@@H](Cc1ccc(C)cc1C)B(O)O)c1ccccc1Cl [Compound No. 87, [(1R)-1-[[2-(2-chloro-N-prop-2-enoyl-anilino)acetyl]amino]-2-(2,4-dimethylphenyl)ethyl]boronic Acid]
+++++ (Selectivity ≥ 150) | < 50 | 0.5 to 5 | – | – | – | C=CC(=O)NCC(=O)N[C@@H](Cc1ccc(C)c(C)c1)B(O)O [Compound No. 88, [(1R)-2-(3,4-dimethylphenyl)-1-[[2-(prop-2-enoylamino)acetyl]amino]ethyl]boronic Acid]
+++++ (Selectivity ≥ 150) | 50 to 500 | > 5 | – | – | – | C=CC(=O)N(CC(=O)N[C@@H](Cc1ccsc1)B(O)O)c1ccccc1Cl [Compound No. 89, [(1R)-1-[[2-(2-chloro-N-prop-2-enoyl-anilino)acetyl]amino]-2-(3-thienyl)ethyl]boronic Acid]
+++++ (Selectivity ≥ 150) | < 50 | > 5 | – | – | – | C=CC(=O)N(CC(=O)N[C@@H](Cc1ccsc1)B(O)O)C1CC1 [Compound No. 90, [(1R)-1-[[2-[cyclopropyl(prop-2-enoyl)amino]acetyl]amino]-2-(3-thienyl)ethyl]boronic Acid]
